Source: patent publication US10064954B2, “Polymer-cyclodextrin-lipid conjugates” (priority 2015, dated 2018)
Where a name gives a salt, the structure may show the parent alone.

assay: Solubility of marketed Drug Products: cyclodextrin to drug ratio; conditions: CD = hydroxypropyl-β-cyclodextrin

Row | Compound | CD/D (mol/mol)
1 | CN1C(=O)CN=C(c2ccccc2)c2cc(Cl)ccc21 [Diazepam] | 18.4
2 | O=C(CCCN1CCC(O)(c2ccc(Cl)cc2)CC1)c1ccc(F)cc1 [Haloperidol] | 302.9
3 | CCC(C)n1ncn(-c2ccc(N3CCN(c4ccc(OCC5COC(Cn6cncn6)(c6ccc(Cl)cc6Cl)O5)cc4)CC3)cc2)c1=O (stereo not drawn) [Itraconazole] | 20.2
4 | CN(Cc1cnc2nc(N)nc(N)c2n1)c1ccc(C(=O)N[C@@H](CCC(=O)O)C(=O)O)cc1 [Methotrexate] | 18.3
5 | CC(C)NCC(O)COc1cccc2ccccc12 (stereo not drawn) [Propranolol] | 10.4
6 | CNC(=C[N+](=O)[O-])NCCSCc1ccc(CN(C)C)o1 [Ranitidine HCl] | 14.5
7 | CCCCCCCCCCNCCN[C@@]1(C)C[C@H](O[C@H]2[C@H](Oc3c4cc5cc3Oc3ccc(cc3Cl)[C@@H](O)[C@@H](NC(=O)[C@@H](CC(C)C)NC)C(=O)N[C@@H](CC(N)=O)C(=O)N[C@H]5C(=O)N[C@H]3C(=O)N[C@H](C(=O)N[C@H](C(=O)O)c5cc(O)c(CNCP(=O)(O)O)c(O)c5-c5cc3ccc5O)[C@H](O)c3ccc(c(Cl)c3)O4)O[C@H](CO)[C@@H](O)[C@@H]2O)O[C@@H](C)[C@H]1O [Telavancin HCl] | 12.6

same assay, conditions: CD = sulfobutyl ether β-cyclodextrin

Row | Compound | CD/D (mol/mol)
8 | CC[C@@H]([C@H](C)O)n1ncn(-c2ccc(N3CCN(c4ccc(OC[C@@H]5CO[C@@](Cn6cncn6)(c6ccc(F)cc6F)C5)cc4)CC3)cc2)c1=O [Posaconazole] | 6.9
9 | C[C@@H](c1ncncc1F)[C@](O)(Cn1cncn1)c1ccc(F)cc1F [Voriconazole] | 2.5

assay: not given; format: physicochemical; conditions: not given
Method: 1% (w/v) of propofol was prepared in a saline based solution with different PEG-carbohydrate conjugates. Table 6 listed the minimum concentration of the conjugates required to solublize propofol as a solubility test reference.

Row | Compound | Concentration (% w/v)
10 | 2-hydroxypropyl-β-cyclodextrin | 30
11 | cholesterypropanediaminelactobionate-mPEG12 | 3.5
12 | oleoylpropanediaminelactobionate-mPEG12 | 3.0
